According to patent US12421216B2, “Voruciclib polymorphs and methods of making and using thereof” (MEI PHARMA, INC., priority 2019, dated 2025):
Entries after “also recorded” stand apart in the source; their conditions may differ. Structures can show the parent of a compound that is named as a salt. Where two headings read alike, the source gives them in different places. One block for each compound: values may come before it.

Assays:
[1] = acid counterion; cited from earlier work
[2] = Physical stability upon exposure to accelerated aging conditions (AAC, 40° C./75% RH), re-analysis by HT-XRPD; type: physicochemical; settings: for Physical stability upon exposure to AAC / Stable during AAC: 40° C./75% RH, 2 days; for Physical stability upon exposure to AAC: HT-XRPD before and after; for Solid phase AAC (XRPD form after accelerated aging): precipitated solids of the salt screen, dried under vacuum at 50° C., 40° C./75% RH for 2 days, HT-XRPD; for Stable during AAC: salt screen solids
[3] = Solubility of salts in water and in 0.2 M phosphate buffer pH 6 at 37° C. after 4 hours (HPLC-DAD); type: physicochemical; settings: for pH (4 h): pH at end of equilibration
Method: Two sets of solubility experiments were performed. […] In the second set of solubility experiments about 5 mg of the salt was weighed in a standard 1.8 mL HPLC vial. Subsequently, aliquots of 200 μL of aqueous medium were added up to a maximum of 1 mL, while making observations regarding the dissolution behavior of the salts. The vials were left to equilibrate at 37° C. with continuous stirring (see Table 25 for details). After 4 hours the solids were separated from the liquid by centrifugation and the liquid phase was further filtrated through a […] PTFE filter to remove any particulate matter. The concentration of solute was determined by HPLC-DAD analysis. A calibration curve was made from two independent stock solutions of voruciclib prepared in acetonitrile/water. The pH was recorded at the end of the equilibration time.

[4] = Thermodynamic solubility of voruciclib HCl by the shake-flask method (HPLC); type: physicochemical; settings: RT; for Solubility classification: USP29
[5] = 0.2 M phosphate buffer pH 6, 37° C., 4 hours
[6] = 0.2M phosphate buffer pH 6, 37° C., 4 hours, about 1 mg salt in 1 mL
[7] = 0.2M phosphate buffer pH 6, 37° C., 4 hours, about 5 mg salt in 1 mL
[8] = 0.2M phosphate buffer pH 6, 37° C., about 1 mg salt in 1 mL
[9] = 0.2M phosphate buffer pH 6, 37° C., about 5 mg salt in 1 mL
[10] = water, 37° C., 4 hours, about 1 mg salt in 1 mL
[11] = water, 37° C., 4 hours, about 5 mg salt, up to 1 mL
[12] = water, 37° C., about 1 mg salt in 1 mL
[13] = water, 37° C., about 5 mg salt, up to 1 mL

SMILES: O=C(O)C[C@H](O)C(=O)O [(−)-L-Malic]
pka1 [1]: 3.5
pka2 [1]: 5.1

SMILES: O=C(O)[C@H](O)[C@@H](O)[C@H](O)[C@H](O)CO [D-Gluconic]
pka1 [1]: 3.8

Solid phase AAC (XRPD form after accelerated aging) [2]: DiTr1
Stable during AAC [2]: Yes
Solubility in phosphate buffer [3, 5]: 30 to 40 µg/mL
solubility [3, 6]: 30 µg/mL
solubility [3, 7]: 40 µg/mL
Form (4 h) of residual solid [3, 8]: DiTr1
pH (4 h) [3, 8]: 6.0
Form (4 h) of residual solid [3, 9]: DiTr1
pH (4 h) [3, 9]: 6.3
Dissolution behaviour in aqueous media (gelling, wettability) ([3]; salt screen, water and/or 0.2 M phosphate buffer pH 6): poor wettability
Solubility in water ([3]; water, 37° C., 4 hours): 30 to 40 µg/mL
solubility [3, 10]: 40 µg/mL
solubility [3, 11]: 30 µg/mL
Solids recovered after solubility determination in water ([3]; water, 37° C., 4 hours, XRPD): DiTr1 was recovered
pH (4 h) [3, 12]: 4.0
Form (4 h) of residual solid [3, 13]: DiTr1
pH (4 h) [3, 13]: 3.5
SMILES: CN1CCC(c2c(O)cc(O)c3c(=O)cc(-c4ccc(C(F)(F)F)cc4Cl)oc23)C1CO.CN1CCC(c2c(O)cc(O)c3c(=O)cc(-c4ccc(C(F)(F)F)cc4Cl)oc23)C1CO.O=C(OC(C(=O)O)C(OC(=O)c1ccccc1)C(=O)O)c1ccccc1 (centres unmarked) [DiTr1]
Physical stability upon exposure to AAC [2]: physically stable under AAC; also recorded: physically stable upon exposure to AAC for two days

SMILES: O=C(O[C@@H](C(=O)O)[C@@H](OC(=O)c1ccccc1)C(=O)O)c1ccccc1 [Dibenzoyl-L-tartaric]
pka1 [1]: 1.9

SMILES: O=S(=O)(O)CCS(=O)(=O)O [Ethane-1,2-disulfonic]
pka1 [1]: −2.1
pka2 [1]: −1.5

SMILES: CCS(=O)(=O)O [Ethanesulfonic]
pka1 [1]: 2.1

Solid phase AAC (XRPD form after accelerated aging) [2]: Nds1a
Stable during AAC [2]: Yes
Solubility in phosphate buffer [3, 5]: 20 µg/mL
solubility [3, 6]: 20 µg/mL
solubility [3, 7]: 20 µg/mL
Form (4 h) of residual solid [3, 8]: Free
pH (4 h) [3, 8]: 6.0
Form (4 h) of residual solid [3, 9]: Nds1a
pH (4 h) [3, 9]: 5.9
Solubility in water ([3]; water, 37° C., 4 hours): 20 µg/mL
solubility [3, 10]: 30 µg/mL
solubility [3, 11]: 20 µg/mL
pH (4 h) [3, 12]: 4.3
Form (4 h) of residual solid [3, 13]: Nds1a
pH (4 h) [3, 13]: 3.4
SMILES: CN1CC[C@@H](c2c(O)cc(O)c3c(=O)cc(-c4ccc(C(F)(F)F)cc4Cl)oc23)[C@@H]1CO.CN1CC[C@@H](c2c(O)cc(O)c3c(=O)cc(-c4ccc(C(F)(F)F)cc4Cl)oc23)[C@@H]1CO.O=S(=O)(O)c1cccc2c(S(=O)(=O)O)cccc12 [Nds1a]
Physical stability upon exposure to AAC [2]: stable during exposure to AAC for 2 days; also recorded: physically stable upon exposure to AAC for two days
Solids recovered / salt dissociation after solubility determination in buffer ([3]; 0.2 M phosphate buffer pH 6, 37° C., 4 hours, XRPD): the residual solids were identical to Nds1a
Solids recovered after solubility determination in water ([3]; water, 37° C., 4 hours, XRPD): the residual solids were identical to Nds1a

solubility at 24 h ([4]; 1,2-dimethoxyethane, organic solvent or mixture, thermodynamic from solid, 1,2-Dimethoxyethane, 24 h, amorphous API, HPLC, read-out: Solubility): 1600 µg/mL
solubility at 24 h ([4]; 1,4-dioxane, organic solvent or mixture, thermodynamic from solid, 1,4-Dioxane, 24 h, amorphous API, HPLC, read-out: Solubility): 400 µg/mL
solubility ([4]; 1-Propanol, 24 h, amorphous API, HPLC): 34500 µg/mL
solubility at 24 h ([4]; 1-propanol, organic solvent or mixture, thermodynamic from solid, 1-Propanol, 24 h, amorphous API, HPLC, read-out: Solubility): 34000 µg/mL
solubility ([4]; 2-Butanol, 24 h, amorphous API, HPLC): 10200 µg/mL
solubility ([4]; 2-Propanol, 24 h, amorphous API, HPLC): 18800 µg/mL
solubility at 24 h ([4]; 2-butanol, organic solvent or mixture, thermodynamic from solid, 2-Butanol, 24 h, amorphous API, HPLC, read-out: Solubility): 10000 µg/mL
solubility at 24 h ([4]; 2-methyltetrahydrofuran, organic solvent or mixture, thermodynamic from solid, 2-Methyltetrahydrofuran, 24 h, amorphous API, HPLC, read-out: Solubility): 1600 µg/mL
solubility at 24 h ([4]; 2-propanol, organic solvent or mixture, thermodynamic from solid, 2-Propanol, 24 h, amorphous API, HPLC, read-out: Solubility): 19000 µg/mL
solubility ([4]; Dimethyl sulfoxide, amorphous API, no suspension obtained, concentration of the solution after first aliquot): >400000 µg/mL
solubility ([4]; Ethanol, 24 h, amorphous API, HPLC): 62000 µg/mL
solubility ([4]; Methanol, 24 h, amorphous API, HPLC): 229500 µg/mL
solubility ([4]; N,N-Dimethylacetamide, amorphous API, no suspension obtained, concentration of the solution after first aliquot): >400000 µg/mL
solubility ([4]; N,N-Dimethylformamide, amorphous API, no suspension obtained, concentration of the solution after first aliquot): >400000 µg/mL
solubility ([4]; N,N-dimethylacetamide, organic solvent or mixture, thermodynamic from solid, N,N-Dimethylacetamide, amorphous API, no suspension obtained, concentration of the solution after first aliquot, read-out: Solubility): > 400000 µg/mL
solubility ([4]; N,N-dimethylformamide, organic solvent or mixture, thermodynamic from solid, N,N-Dimethylformamide, amorphous API, no suspension obtained, concentration of the solution after first aliquot, read-out: Solubility): > 400000 µg/mL
Solubility classification ([4]; 2-Propanol, 2-Butanol): Sparingly soluble
Solubility classification ([4]; Acetonitrile, Ethyl acetate, Methyl isobutyl ketone, Dichloromethane, Isopropyl acetate, 1,4-Dioxane, Diethyl ether, tert-Butyl methyl ether, Toluene): Very slightly soluble
Solubility classification ([4]; Anisole, p-Xylene, Diisopropyl ether, Cumene, Cyclohexane, n-Hexane, n-Heptane, Hexanes): Practically insoluble
Solubility classification ([4]; Ethanol, 1-Propanol): Soluble
Solubility classification ([4]; N,N-Dimethylacetamide, Dimethyl sulfoxide, N,N-Dimethylformamide, Methanol): Freely soluble
Solubility classification ([4]; Tetrahydrofuran, Acetone, Chloroform, 1,2-Dimethoxyethane, 2-Methyltetrahydrofuran, Ethyl formate, Methyl ethyl ketone): Slightly soluble
solubility at 24 h ([4]; acetone, organic solvent or mixture, thermodynamic from solid, Acetone, 24 h, amorphous API, HPLC, read-out: Solubility): 3500 µg/mL
solubility at 24 h ([4]; acetonitrile, organic solvent or mixture, thermodynamic from solid, Acetonitrile, 24 h, amorphous API, HPLC, read-out: Solubility): 900 µg/mL
solubility at 24 h ([4]; anisole, organic solvent or mixture, thermodynamic from solid, Anisole, 24 h, amorphous API, HPLC, read-out: Solubility): < 100 µg/mL
solubility at 24 h ([4]; chloroform, organic solvent or mixture, thermodynamic from solid, Chloroform, 24 h, amorphous API, HPLC, read-out: Solubility): 3100 µg/mL
solubility at 24 h ([4]; cumene, organic solvent or mixture, thermodynamic from solid, Cumene, 24 h, amorphous API, HPLC, read-out: Solubility): < 100 µg/mL
solubility at 24 h ([4]; cyclohexane, organic solvent or mixture, thermodynamic from solid, Cyclohexane, 24 h, amorphous API, HPLC, read-out: Solubility): < 100 µg/mL
solubility at 24 h ([4]; dichloromethane, organic solvent or mixture, thermodynamic from solid, Dichloromethane, 24 h, amorphous API, HPLC, read-out: Solubility): 500 µg/mL
solubility at 24 h ([4]; diethyl ether, organic solvent or mixture, thermodynamic from solid, Diethyl ether, 24 h, amorphous API, HPLC, read-out: Solubility): 200 µg/mL
solubility at 24 h ([4]; diisopropyl ether, organic solvent or mixture, thermodynamic from solid, Diisopropyl ether, 24 h, amorphous API, HPLC, read-out: Solubility): < 100 µg/mL
solubility ([4]; dimethyl sulfoxide, organic solvent or mixture, thermodynamic from solid, Dimethyl sulfoxide, amorphous API, no suspension obtained, concentration of the solution after first aliquot, read-out: Solubility): > 400000 µg/mL
solubility at 24 h ([4]; ethanol, organic solvent or mixture, thermodynamic from solid, Ethanol, 24 h, amorphous API, HPLC, read-out: Solubility): 62000 µg/mL
solubility at 24 h ([4]; ethyl acetate, organic solvent or mixture, thermodynamic from solid, Ethyl acetate, 24 h, amorphous API, HPLC, read-out: Solubility): 800 µg/mL
solubility at 24 h ([4]; ethyl formate, organic solvent or mixture, thermodynamic from solid, Ethyl formate, 24 h, amorphous API, HPLC, read-out: Solubility): 1600 µg/mL
solubility at 24 h ([4]; hexanes, organic solvent or mixture, thermodynamic from solid, Hexanes, 24 h, amorphous API, HPLC, read-out: Solubility): < 100 µg/mL
solubility at 24 h ([4]; isopropyl acetate, organic solvent or mixture, thermodynamic from solid, Isopropyl acetate, 24 h, amorphous API, HPLC, read-out: Solubility): 500 µg/mL
solubility at 24 h ([4]; methanol, organic solvent or mixture, thermodynamic from solid, Methanol, 24 h, amorphous API, HPLC, read-out: Solubility): 230000 µg/mL
solubility at 24 h ([4]; methyl ethyl ketone, organic solvent or mixture, thermodynamic from solid, Methyl ethyl ketone, 24 h, amorphous API, HPLC, read-out: Solubility): 1100 µg/mL
solubility at 24 h ([4]; methyl isobutyl ketone, organic solvent or mixture, thermodynamic from solid, Methyl isobutyl ketone, 24 h, amorphous API, HPLC, read-out: Solubility): 700 µg/mL
solubility at 24 h ([4]; n-heptane, organic solvent or mixture, thermodynamic from solid, n-Heptane, 24 h, amorphous API, HPLC, read-out: Solubility): < 100 µg/mL
solubility at 24 h ([4]; n-hexane, organic solvent or mixture, thermodynamic from solid, n-Hexane, 24 h, amorphous API, HPLC, read-out: Solubility): < 100 µg/mL
solubility at 24 h ([4]; p-xylene, organic solvent or mixture, thermodynamic from solid, p-Xylene, 24 h, amorphous API, HPLC, read-out: Solubility): < 100 µg/mL
solubility at 24 h ([4]; solvents other than DMA, DMF, DMSO and alcohols, organic solvent or mixture, thermodynamic from solid, solvents other than DMA, DMF, DMSO and alcohols, read-out: Solubility in all the other solvents): < 10000 µg/mL
solubility at 24 h ([4]; tert-butyl methyl ether, organic solvent or mixture, thermodynamic from solid, tert-Butyl methyl ether, 24 h, amorphous API, HPLC, read-out: Solubility): 100 µg/mL
solubility at 24 h ([4]; tetrahydrofuran, organic solvent or mixture, thermodynamic from solid, Tetrahydrofuran, 24 h, amorphous API, HPLC, read-out: Solubility): 9600 µg/mL
solubility at 24 h ([4]; toluene, organic solvent or mixture, thermodynamic from solid, Toluene, 24 h, amorphous API, HPLC, read-out: Solubility): 100 µg/mL
Solubility pH 6 ([3]; 0.2M phosphate buffer (pH 6), 37° C., 4 hours, listed as Voruciclib HCl salt): 0.01 mg/mL
Solubility water ([3]; water, 37° C., 4 hours, listed as Voruciclib HCl salt): Gel
SMILES: CN1CC[C@@H](c2c(O)cc(O)c3c(=O)cc(-c4ccc(C(F)(F)F)cc4Cl)oc23)[C@@H]1CO [voruciclib HCl]
